# Measurements as given in PubChem BioAssay (NCI).
#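 Cultured in 96-well plates, cells were exposed to test compound for 48 hours across five concentrations. GI50 = concentration required for 50% inhibition of growth. TGI: concentration producing complete growth inhibition.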
# What was measured:
# Test in all cases: inhibition of tumour cell growth, NCI panel, 48 h
# [1] = system: NCI-H226 lung
# [2] = system: MDA-MB-231 breast
# [3] = system: HT29 colon
# [4] = system: SW-620 colon
# [5] = system: RXF 393 renal
# [6] = system: SK-OV-3 ovarian
# [7] = system: HCT-15 colon
# [8] = system: K-562 leukemia
# [9] = system: HOP-62 NSCLC
# [10] = system: T-47D breast
# [11] = system: SNB-19 CNS
# [12] = system: OVCAR-3 ovarian
# [13] = system: CAKI-1 renal
# [14] = system: DU-145 prostate
# [15] = system: NCI-H460 lung
# [16] = system: LOX IMVI melanoma
# [17] = system: UO-31 renal
# [18] = system: OVCAR-5 ovarian
# [19] = system: BT-549 breast
# [20] = system: NCI-H23 lung
# [21] = system: HCC-2998 colon
# [22] = system: HOP-92 NSCLC
# [23] = system: HL-60(TB) leukemia
# [24] = system: ACHN renal
# [25] = system: SF-539 CNS
# [26] = system: HS 578T breast
# [27] = system: SF-268 CNS
# [28] = system: M14 melanoma
# [29] = system: RPMI-8226 leukemia
smiles,measurement,setting,value
COc1ccc(/C=C2\CN(C(=O)CCN3CCC(=NO)CC3)C/C(=C\c3ccc(OC)cc3)C2=O)cc1,GI50,[1],2510 nM
same,TGI,[1],7540 nM
same,GI50,[2],2110 nM
same,TGI,[2],4550 nM
same,GI50,[3],2040 nM
same,TGI,[3],4450 nM
same,GI50,[4],1390 nM
same,TGI,[4],3140 nM
same,GI50,[5],1680 nM
same,TGI,[5],3150 nM
same,GI50,[6],2720 nM
same,TGI,[6],7000 nM
same,GI50,[7],2150 nM
same,TGI,[7],5560 nM
same,GI50,[8],1200 nM
same,TGI,[8],> 100000 nM
same,GI50,[9],2030 nM
same,TGI,[9],4590 nM
same,GI50,[10],2570 nM
same,TGI,[10],8910 nM
same,GI50,[11],2580 nM
same,TGI,[11],7550 nM
same,GI50,[12],1890 nM
same,TGI,[12],3560 nM
same,GI50,[13],1820 nM
same,TGI,[13],3740 nM
same,GI50,[14],1900 nM
same,TGI,[14],3670 nM
same,GI50,[15],2630 nM
same,TGI,[15],6740 nM
same,GI50,[16],1470 nM
same,TGI,[16],2960 nM
same,GI50,[17],1590 nM
same,TGI,[17],2940 nM
same,GI50,[18],1830 nM
same,TGI,[18],3920 nM
same,GI50,[19],2170 nM
same,TGI,[19],6080 nM
same,GI50,[20],2470 nM
same,TGI,[20],6370 nM
same,GI50,[21],1850 nM
same,TGI,[21],3510 nM
same,GI50,[22],2340 nM
same,TGI,[22],9320 nM
same,GI50,[23],2800 nM
same,TGI,[23],8270 nM
same,GI50,[24],1950 nM
same,TGI,[24],4050 nM
same,GI50,[25],1710 nM
same,TGI,[25],3180 nM
same,GI50,[26],3640 nM
same,TGI,[26],18600 nM
same,GI50,[27],2840 nM
same,GI50,[28],2040 nM
same,TGI,[28],4540 nM
same,GI50,[29],648 nM
same,TGI,[29],3790 nM
